Assays:
[1] = system: amniotic fluid-derived cell line; test: Two high dose trichostatin A treatments (first 48 h), gene expression by RT-PCR (Example 9); type: cell-based, human; settings: for Gata1 gene expression / HNF-3 beta gene expression / Insulin gene expression / Pdx-1 gene expression / sox17 gene expression: 1.25 μM 0-48 h + 96-120 h;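 for Gata-1 RT-PCR detection cycle: lower cycle number means higher gene expression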;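 for HNF-3 beta RT-PCR detection cycle: lower cycle number means higher gene expression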
Description: Several cell lines obtained from different amniotic fluid specimens (see Example 14) and pancreas donors (see Example 13) were tested with similar results. Two lines at similar passage number but derived from different amniotic fluid specimens are shown in Table VIII-A and Table VIII-B for this example. One of these cell lines was also used in examples 2 and 4 above. In addition, this example also contains comparison data in Table VIII-C and Table VIII-D for a single pancreatic-derived stromal line grown to early and late passage number.
Amniotic fluid derived cells or pancreatic-derived stromal cells were seeded into 24-well tissue culture plates at a density of 5000/cm^2 and cultured in AMNIOMAX (Invitrogen) or DMEM with 10% FBS respectively under standard cell culture conditions until confluent. After reaching confluence, amniotic fluid derived cells were treated at time 0 hours with a dose of 1.25 μM trichostatin A, and pancreatic-derived stromal cells were treated with a dose of 5.0 μM trichostatin A solubilized in DMSO and medium. At time 48 hours, cell cultures underwent a complete medium change to remove all traces of trichostatin A. At time 96 hours, cell cultures were re-fed with fresh medium and received a second dose of trichostatin A at the same concentration as used previously. At time 120 hours, cell cultures again underwent a complete medium change and were cultured for an additional 24 hours or […] total incubation time. Samples were taken for RT-PCR at the times indicated in Table IX-A to D. RNA samples were obtained daily from the start of the experiment. Culture medium was removed, and cells were washed with PBS then collected in RLT with β-mercaptoethanol (Qiagen). RNA was purified using the RNeasy Mini Kit (Qiagen) and RNA quantity and quality was determined using a spectrophotometer. cDNA was made using the iScript cDNA synthesis kit (BioRad). Human pancreas cDNA was included as a control. Results were normalized against GAPDH expression levels.
[…] Samples of 20 ng cDNA was used in each Real-Time PCR reaction. RT-PCR was performed on the Applied Biosystems 7500, according to the methods described in Example 15. The data were analyzed using the accompanying software.
Real-time PCR amplifcation and quantitative analysis. Unless otherwise stated, all reagents were purchased from Applied Biosystems. Real-time PCR reactions were performed using the ABI PRISM™ 7500 Sequence Detection System. TAQMAN™ FAST UNIVERSAL PCR MASTER MIX™ (ABI, CA) was used with 20 ng of reverse transcribed RNA in a total reaction volume of 20 μl. Each cDNA sample was run in duplicate to allow correction of pipetting errors. Primers and FAM-labeled TAQMAN™ probes were used at concentrations of 200 nM. The level of expression for each target gene was normalized using the pre-developed Applied Biosystem's human glyceraldehyde-3-phosphate dehydrogenase (GAPDH) endogenous control kit. Primers and probes were designed using either ABI PRISM PRIMER EXPRESS™ software or a pre-developed ABI gene analysis kit. For each gene, either one of the primers or the probe were designed to be exon-boundary spanning. This eliminated the possibility of the primers/probe binding to any genomic DNA present. The primer and probe sets are listed as follows: Pdx-1 (Hs00426216), Insulin (Hs00355773), glucagon (Hs00174967), and FoxA2 (HNF 3-beta) (Hs00232764). The remaining primers were designed using the PRIMERS program (ABI, CA). After an initial 95° C. incubation for 20 sec, samples were cycled 40 times in two stages: a denaturation step at 95° C. for 3 sec, followed by an annealing/extension step at 60° C. for 30 sec.
For each primer/probe set, a cycle time value was determined as the cycle number at which the fluorescence intensity of the PCR reaction reached a specific value in the middle of the exponential region of amplification. […]

[2] = system: resting peripheral blood mononuclear cells (PBMCs); test: Trichostatin A treatment of PBMCs, gene expression by RT-PCR (Example 20); type: cell-based, human; settings: 5 μM
Excerpt: Human peripheral blood mononuclear cells (PBMCs) were isolated from whole blood using Histopaque (Sigma) gradients and standard density centrifugation. PBMCs are a heterogeneous mixture of lymphoid cells including quiescent T-lymphocytes. Cells were washed thoroughly, counted, and resuspended at 1-2×10^6 cells per ml in culture medium containing RPMI-1640 and 10% FCS. Phytohemagglutinin (PHA; Sigma) is a mitogenic lectin that specifically induces T-lymphocyte activation and proliferation. PHA was added to the cell suspension at a final concentration of 10 μg/ml, and PBMCs were cultured for 3 days at 37° C. with 5% CO2. […] At the end of culture, PBMCs were pooled to harvest, washed thoroughly, and resuspended in fresh culture medium with 5 μM trichostatin A diluted in DMSO. A control culture of PHA-treated PBMCs received an equivalent dilution of DMSO alone. Cells were returned to culture for an additional 24 or 48 hours. Alternatively, resting PBMCs were isolated in a similar manner and cultured for 24 or 48 hours total incubation time with either 5 μM trichostatin A or DMSO alone. At the conclusion of culture, cells were harvested and washed with PBS prior to preparation of RNA in RLT lysis buffer with β-mercaptoethanol (Qiagen). RNA was purified using the RNeasy Mini Kit (Qiagen); RNA quantity and quality were determined using a spectrophotometer. CDNA was made using the iScript CDNA synthesis kit (BioRad). Samples of 20 ng CDNA were used in each RT-PCR reaction, performed on the Applied Biosystems 7500. Results were normalized against GAPDH expression levels with data analysis performed using the accompanying software.

[3] = 1.25 μM, following the addition

Compound: CC(/C=C/C(=O)NO)=C\[C@@H](C)C(=O)c1ccc(N(C)C)cc1 [trichostatin A]
- Gata1 gene expression ([1]; 24 hrs): + (detectable between 35 and 40 cycles by RT-PCR)
- HNF-3 beta gene expression ([1]; 24 hrs): +++ (detectable at less than 35 cycles by RT-PCR with SE less than 0.9)
- Insulin gene expression ([1]; 24 hrs): nd (not detectable at >40 cycles by RT-PCR)
- Pdx-1 gene expression ([1]; 24 hrs): +++ (detectable at less than 35 cycles by RT-PCR with SE less than 0.9)
- sox17 gene expression ([1]; 24 hrs): +++ (detectable at less than 35 cycles by RT-PCR with SE less than 0.9)
- Gata1 gene expression ([1]; 48 hrs): nd (not detectable at >40 cycles by RT-PCR)
- HNF-3 beta gene expression ([1]; 48 hrs): +++ (detectable at less than 35 cycles by RT-PCR with SE less than 0.9)
- Insulin gene expression ([1]; 48 hrs): nd (not detectable at >40 cycles by RT-PCR)
- Pdx-1 gene expression ([1]; 48 hrs): +++ (detectable at less than 35 cycles by RT-PCR with SE less than 0.9)
- sox17 gene expression ([1]; 48 hrs): +++ (detectable at less than 35 cycles by RT-PCR with SE less than 0.9)
- Gata1 gene expression ([1]; 72 hrs): nd (not detectable at >40 cycles by RT-PCR)
- HNF-3 beta gene expression ([1]; 72 hrs): + (detectable between 35 and 40 cycles by RT-PCR)
- Insulin gene expression ([1]; 72 hrs): nd (not detectable at >40 cycles by RT-PCR)
- Pdx-1 gene expression ([1]; 72 hrs): nd (not detectable at >40 cycles by RT-PCR)
- sox17 gene expression ([1]; 72 hrs): +++ (detectable at less than 35 cycles by RT-PCR with SE less than 0.9)
- Gata1 gene expression ([1]; 96 hrs): nd (not detectable at >40 cycles by RT-PCR)
- HNF-3 beta gene expression ([1]; 96 hrs): nd (not detectable at >40 cycles by RT-PCR)
- Insulin gene expression ([1]; 96 hrs): nd (not detectable at >40 cycles by RT-PCR)
- Pdx-1 gene expression ([1]; 96 hrs): nd (not detectable at >40 cycles by RT-PCR)
- sox17 gene expression ([1]; 96 hrs): +++ (detectable at less than 35 cycles by RT-PCR with SE less than 0.9)
- Gata1 gene expression ([1]; 120 hrs): nd (not detectable at >40 cycles by RT-PCR)
- HNF-3 beta gene expression ([1]; 120 hrs): + (detectable between 35 and 40 cycles by RT-PCR)
- Insulin gene expression ([1]; 120 hrs): nd (not detectable at >40 cycles by RT-PCR)
- Pdx-1 gene expression ([1]; 120 hrs): + (detectable between 35 and 40 cycles by RT-PCR)
- sox17 gene expression ([1]; 120 hrs): +++ (detectable at less than 35 cycles by RT-PCR with SE less than 0.9)
- Pdx-1 RT-PCR detection cycle ([1]; 1.25 μM, after the second treatment): 37 cycles
- Gata-1 RT-PCR detection cycle ([1]; 1.25 μM, following first treatment): 37 cycles
- HNF-3 beta RT-PCR detection cycle [1, 3]: 31 cycles
- Pdx-1 RT-PCR detection cycle [1, 3]: 32 cycles
- HNF-3 beta RT-PCR detection cycle ([1]; 1.25 μM, following the second treatment): 35 cycles
- HNF-3 beta expression ([2]; 24 or 48 hours): negative
- Sox17 expression ([2]; 24 or 48 hours): negative
- glucagon expression ([2]; 24 or 48 hours): negative
- insulin expression ([2]; 24 or 48 hours): negative
- somatostatin expression ([2]; 24 or 48 hours): negative
- GAPDH gene expression ([2]; 24 hrs): +++ (detectable at less than 35 cycles by RT-PCR with SE less than 0.9)
- GATA4 gene expression ([2]; 24 hrs): + (detectable at greater than 35–40 cycles by RT-PCR)
- Gata1 gene expression ([2]; 24 hrs): nd (not detectable at >40 cycles by RT-PCR)
- Pdx-1 gene expression ([2]; 24 hrs): nd (not detectable at >40 cycles by RT-PCR)
- GAPDH gene expression ([2]; 48 hours): +++ (detectable at less than 35 cycles by RT-PCR with SE less than 0.9)
- GATA4 gene expression ([2]; 48 hours): + (detectable at greater than 35–40 cycles by RT-PCR)
- Gata1 gene expression ([2]; 48 hours): nd (not detectable at >40 cycles by RT-PCR)
- Pdx-1 gene expression ([2]; 48 hours): nd (not detectable at >40 cycles by RT-PCR)

— patent US20080063628A1, “METHODS TO PROMOTE CELL DIFFERENTIATION” (priority 2006, published 2008)
